The results in this text go back to patent publication US9717737B2, “Vacuolin-1 as an inhibitor of autophagy and endosomal trafficking and the use thereof for inhibiting tumor progression” (The University of Hong Kong, priority 2014, dated 2017).

The assay relates to RFP-GFP-LC3 expressing HeLa cells. The experiment in a line: RFP-GFP-LC3 (tfLC3) fluorescence image-based autophagy assay. It is filed as cell-based. The source says:
Prompted by the fact that many available autophagy chemical modulators lack either potency or specificity (Kimura et al., 2013), a fluorescence image-based assay was set up to screen small molecules affecting autophagy. HeLa cells, an autophagy competent cell line, were infected with lentiviruses carrying expression cassettes that encode RFP-GFP-LC3 (tfLC3) (Kimura et al., 2007). Thus, the LC3-II positive autophagosomes are labeled with both GFP and RFP signals shown as yellow puncta, and after fusion with lysosomes, autolysosomes are shown as red only puncta because GFP loses its fluorescence in acidic pH.
Next, a panel of small chemicals that are commercially available and have been previously shown to affect vesicle trafficking or organelle morphology were selected and screened for their effects on autophagy regulation in tfLC3 expressing HeLa cells (data not shown).

Turning to `CCN(CC)CCCC(C)Nc1ccnc2cc(Cl)ccc12` (centres unmarked) [CQ, Chloroquine], the “LC3 puncta (yellow = autophagosomes, red only = autolysosomes)” value is reported as “markedly induced the accumulation of yellow puncta only”.
`CO/C1=C\C(C)=C\[C@@H](C)[C@@H](O)[C@@H](C)C/C(C)=C/C=C/[C@H](OC)[C@@H]([C@@H](C)[C@@H](O)[C@H](C)[C@@]2(O)C[C@@H](O)[C@H](C)[C@@H](C(C)C)O2)OC1=O` [bafilomycin, Bafilomycin A1]: the “LC3 puncta (yellow = autophagosomes, red only = autolysosomes)” value is “markedly induced the accumulation of yellow puncta only”.
